The results in this text go back to patent US9963434B2, “N-arylmethyl sulfonamide negative modulators of NR2A” (LUC THERAPEUTICS, priority 2013, dated 2018).

This experiment addresses NR1/NR2A (Homo sapiens (Human), UniProt Q05586+Q12879). The experiment is described as follows: FDSS Ca2+ influx inhibition assay in HEK293 cells expressing NR1/NR2A. In kind it is cell-based. Particulars: 3 μM glutamate, 3 μM glycine, 1 mM Ca2+. As for the experimental part: Cell Culture and plating: HEK293 cells expressing NR1/NR2A (Chantest, Cleveland, Ohio) were grown to 70-80% confluency as an adherent monolayer in standard tissue culture flasks at 37° C., 5% CO2 per supplier's instructions.
After induction, cell culture medium was removed and cells were rinsed once with Ca^2+ and Mg^2+-free Dulbecco's phosphate buffered saline. Cells were then removed from the flask using TrypLE™ Express (Life Technologies) according to the manufacturer's instructions and collected to 50 ml centrifuge tubes. Following two washes in Ca^2+/Mg^2+-free HBSS with 20 mM HEPES (HHnoCa), cells were counted and viability assessed using trypan blue. To load cells with Ca^2+-sensitive dye, they were resuspended in fluo-8 plus Component B (AAT Bioquest Products) diluted in HHnoCa and incubated 15 minutes at 37° C., followed by 30 minutes at room temp (in dark). Cells were then washed and resuspended in HHnoCa to remove extracellular dye and plated in 384-well plates (Falcon, uncoated) at 20,000-30,000 cells/well in a final volume of 25 μL/well.
FDSS Assay: To each well of the plate, 10 μL test compound, control (MK801) or HHnoCa buffer was added to a final concentration of 10 μM with a final concentration of DMSO of 0.1%. Following 10 minutes pre-incubation in the dark, plates are loaded onto the Hamamatsu FDSS 6000. After collecting baseline fluorescence images, 3 μM glutamate, 3 μM glycine, and 1 mM Ca^2+ in HHnoCa buffer is added to each well, and Ca^2+ is recorded for 3 minutes. Data were processed by computing ratio of fluorescence at the end of data collection to baseline fluorescence to assess degree of Ca^2+ influx inhibition relative to that observed in MK801.

[1] abbreviates: inhibition relative to MK801, read-out: NR2A IC50.

Where two headings read alike, the source gives them in different places. Where only a bound is given, the exact number is not on record here.

Sequence of NR1/NR2A (Q12879 23-1464, other chains not shown): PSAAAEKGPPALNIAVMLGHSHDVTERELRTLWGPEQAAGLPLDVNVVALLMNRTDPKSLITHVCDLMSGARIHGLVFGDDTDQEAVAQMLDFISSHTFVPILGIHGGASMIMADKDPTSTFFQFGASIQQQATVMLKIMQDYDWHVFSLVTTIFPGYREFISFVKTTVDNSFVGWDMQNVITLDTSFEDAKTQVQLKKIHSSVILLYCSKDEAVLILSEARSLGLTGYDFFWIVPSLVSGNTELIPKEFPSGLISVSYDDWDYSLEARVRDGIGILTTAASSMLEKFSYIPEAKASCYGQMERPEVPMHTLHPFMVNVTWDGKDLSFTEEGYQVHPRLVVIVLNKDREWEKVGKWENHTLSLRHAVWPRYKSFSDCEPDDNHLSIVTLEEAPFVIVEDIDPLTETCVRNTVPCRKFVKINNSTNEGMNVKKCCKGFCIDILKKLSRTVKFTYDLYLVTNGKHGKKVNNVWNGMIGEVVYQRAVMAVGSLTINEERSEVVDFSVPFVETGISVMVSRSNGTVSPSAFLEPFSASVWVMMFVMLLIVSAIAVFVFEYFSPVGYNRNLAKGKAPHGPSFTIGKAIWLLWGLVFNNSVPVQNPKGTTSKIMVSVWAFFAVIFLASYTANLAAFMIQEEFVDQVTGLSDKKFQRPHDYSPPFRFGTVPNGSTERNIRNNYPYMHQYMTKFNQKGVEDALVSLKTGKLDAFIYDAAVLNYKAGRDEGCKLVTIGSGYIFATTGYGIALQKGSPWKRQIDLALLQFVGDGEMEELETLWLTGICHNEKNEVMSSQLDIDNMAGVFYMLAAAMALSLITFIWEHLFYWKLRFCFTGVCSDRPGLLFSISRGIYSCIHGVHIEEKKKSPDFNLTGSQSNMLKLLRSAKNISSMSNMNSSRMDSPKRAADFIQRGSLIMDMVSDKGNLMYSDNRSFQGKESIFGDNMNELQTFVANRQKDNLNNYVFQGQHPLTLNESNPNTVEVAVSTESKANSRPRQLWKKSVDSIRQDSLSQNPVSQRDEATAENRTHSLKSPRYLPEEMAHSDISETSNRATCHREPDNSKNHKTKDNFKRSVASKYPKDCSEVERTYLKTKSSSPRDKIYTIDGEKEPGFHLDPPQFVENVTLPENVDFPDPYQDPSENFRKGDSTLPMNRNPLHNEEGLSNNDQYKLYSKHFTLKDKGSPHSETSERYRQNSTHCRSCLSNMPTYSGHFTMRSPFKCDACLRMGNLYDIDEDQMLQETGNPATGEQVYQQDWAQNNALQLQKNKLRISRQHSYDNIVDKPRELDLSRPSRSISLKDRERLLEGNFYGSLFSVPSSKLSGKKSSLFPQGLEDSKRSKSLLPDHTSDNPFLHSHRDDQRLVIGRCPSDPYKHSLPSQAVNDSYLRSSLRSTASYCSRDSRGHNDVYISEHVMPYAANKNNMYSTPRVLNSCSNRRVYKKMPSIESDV

On to `O=C(NCc1cnco1)c1ccc(CNS(=O)(=O)c2ccc(F)c(Cl)c2)cn1` [5-(3-chloro-4-fluorobenzenesulfon-amidomethyl)-N-(1,3-oxazol-5-ylmethyl)pyridine-2-carboxamide], for which the IC50 (read-out: Binned Activity) lay in the range of 1 to 10 µM. Regarding `O=C(NCc1nccs1)c1cnc(CNS(=O)(=O)c2ccc(F)c(Cl)c2)cn1` [5-(3-chloro-4-fluorobenzenesulfon-amidomethyl)-N-(1,3-thiazol-2-ylmethyl)pyrazine-2-carboxamide], the IC50 by setting is: under setting [1], 10 µM; (read-out: Binned Activity) over 10 µM. For `O=C(NCc1nccs1)c1ccc(CNS(=O)(=O)c2ccc(F)c(Cl)c2)cn1` [5-(3-chloro-4-fluorobenzenesulfon-amidomethyl)-N-(1,3-thiazol-2-ylmethyl)pyridine-2-carboxamide], the IC50 (read-out: Binned Activity) was in the range of 1 to 10 µM. The same measure, in the same setting: to `O=C(NCc1cncs1)c1cnc(CNS(=O)(=O)c2ccc(F)c(Cl)c2)cn1` [5-(3-chloro-4-fluorobenzenesulfon-amidomethyl)-N-(1,3-thiazol-5-ylmethyl)pyrazine-2-carboxamide] belongs 0.1 to 1 µM; to `O=C(NCc1cncs1)c1ccc(CNS(=O)(=O)c2ccc(F)c(Cl)c2)cn1` [5-(3-chloro-4-fluorobenzenesulfon-amidomethyl)-N-(1,3-thiazol-5-ylmethyl)pyridine-2-carboxamide], 0.1 to 1 µM. As to `O=C(NCc1ccco1)c1ccc(CNS(=O)(=O)c2ccc(F)c(Cl)c2)cn1` [5-(3-chloro-4-fluorobenzenesulfon-amidomethyl)-N-(furan-2-ylmethyl)pyridine-2-carboxamide], the IC50 was 10 µM under setting [1] and over 10 µM (read-out: Binned Activity). As to `O=C(NCc1ccoc1)c1ccc(CNS(=O)(=O)c2ccc(F)c(Cl)c2)cn1` [5-(3-chloro-4-fluorobenzenesulfon-amidomethyl)-N-(furan-3-ylmethyl)pyridine-2-carboxamide], the IC50 was 10 µM under setting [1] and over 10 µM (read-out: Binned Activity).

For `O=C(NCc1cnccn1)c1cnc(CNS(=O)(=O)c2ccc(F)c(Cl)c2)cn1` [5-(3-chloro-4-fluorobenzenesulfon-amidomethyl)-N-(pyrazin-2-ylmethyl)pyrazine-2-carboxamide], the IC50 (read-out: Binned Activity) fell in the range of 1 to 10 µM. For the molecule `O=C(NCc1cnccn1)c1ccc(CNS(=O)(=O)c2ccc(F)c(Cl)c2)cn1` [5-(3-chloro-4-fluorobenzenesulfon-amidomethyl)-N-(pyrazin-2-ylmethyl)pyridine-2-carboxamide], under “read-out: Binned Activity”, the IC50 was 1 to 10 µM. As for `O=C(NCc1ccccn1)c1cnc(CNS(=O)(=O)c2ccc(F)c(Cl)c2)cn1` [5-(3-chloro-4-fluorobenzenesulfon-amidomethyl)-N-(pyridin-2-ylmethyl)pyrazine-2-carboxamide], the IC50 reads like this: under setting [1], 10 µM; (read-out: Binned Activity) over 10 µM. The matching figures for `O=C(NCc1ccccn1)c1ccc(CNS(=O)(=O)c2ccc(F)c(Cl)c2)cn1` [5-(3-chloro-4-fluorobenzenesulfon-amidomethyl)-N-(pyridin-2-ylmethyl)pyridine-2-carboxamide]: 10 µM and over 10 µM. As for `O=C(NCc1cccnc1)c1cnc(CNS(=O)(=O)c2ccc(F)c(Cl)c2)cn1` [5-(3-chloro-4-fluorobenzenesulfon-amidomethyl)-N-(pyridin-3-ylmethyl)pyrazine-2-carboxamide], where the note is “read-out: Binned Activity”, the IC50 lay within 0.1 to 1 µM.

With `O=C(NCc1cccnc1)c1ccc(CNS(=O)(=O)c2ccc(F)c(Cl)c2)cn1` [5-(3-chloro-4-fluorobenzenesulfon-amidomethyl)-N-(pyridin-3-ylmethyl)pyridine-2-carboxamide], where the note is “read-out: Binned Activity”, the IC50 lay in the range of 0.1 to 1 µM.

Consider `O=C(NCc1cccnc1)c1ncc(CNS(=O)(=O)c2ccc(F)c(Cl)c2)cn1` [5-(3-chloro-4-fluorobenzenesulfon-amidomethyl)-N-(pyridin-3-ylmethyl)pyrimidine-2-carboxamide], for which the IC50 was 10 µM under setting [1] and over 10 µM (read-out: Binned Activity). `O=C(NCc1ccncc1)c1cnc(CNS(=O)(=O)c2ccc(F)c(Cl)c2)cn1` [5-(3-chloro-4-fluorobenzenesulfon-amidomethyl)-N-(pyridin-4-ylmethyl)pyrazine-2-carboxamide]: the IC50 (read-out: Binned Activity) is 1 to 10 µM. On to `O=C(NCc1ccncc1)c1ccc(CNS(=O)(=O)c2ccc(F)c(Cl)c2)cn1` [5-(3-chloro-4-fluorobenzenesulfon-amidomethyl)-N-(pyridin-4-ylmethyl)pyridine-2-carboxamide], for which the IC50 reads like this: under setting [1], 10 µM; (read-out: Binned Activity) over 10 µM. For `O=C(NCc1ncccn1)c1ccc(CNS(=O)(=O)c2ccc(F)c(Cl)c2)cn1` [5-(3-chloro-4-fluorobenzenesulfon-amidomethyl)-N-(pyrimidin-2-ylmethyl)pyridine-2-carboxamide] the same measures were 10 µM and over 10 µM. The matching figures for `O=C(NCc1ccncn1)c1cnc(CNS(=O)(=O)c2ccc(F)c(Cl)c2)cn1` [5-(3-chloro-4-fluorobenzenesulfon-amidomethyl)-N-(pyrimidin-4-ylmethyl)pyrazine-2-carboxamide]: 10 µM and over 10 µM.

For the molecule `O=C(NCc1ccncn1)c1ccc(CNS(=O)(=O)c2ccc(F)c(Cl)c2)cn1` [5-(3-chloro-4-fluorobenzenesulfon-amidomethyl)-N-(pyrimidin-4-ylmethyl)pyridine-2-carboxamide], the IC50 is, setting by setting: under setting [1], 10 µM; (read-out: Binned Activity) over 10 µM. In the case of `O=C(NCc1cncnc1)c1cnc(CNS(=O)(=O)c2ccc(F)c(Cl)c2)cn1` [5-(3-chloro-4-fluorobenzenesulfon-amidomethyl)-N-(pyrimidin-5-ylmethyl)pyrazine-2-carboxamide], the IC50 (read-out: Binned Activity) lay within 1 to 10 µM. Same read-out and setting: to `O=C(NCc1cncnc1)c1ccc(CNS(=O)(=O)c2ccc(F)c(Cl)c2)cn1` [5-(3-chloro-4-fluorobenzenesulfon-amidomethyl)-N-(pyrimidin-5-ylmethyl)pyridine-2-carboxamide] belongs 1 to 10 µM. As to `O=C(NCc1cccs1)c1ccc(CNS(=O)(=O)c2ccc(F)c(Cl)c2)cn1` [5-(3-chloro-4-fluorobenzenesulfon-amidomethyl)-N-(thiophen-2-ylmethyl)pyridine-2-carboxamide], the IC50 under setting [1] came out at 10 µM and the IC50 (read-out: Binned Activity) is over 10 µM.

Regarding `O=C(NCc1ccsc1)c1ccc(CNS(=O)(=O)c2ccc(F)c(Cl)c2)cn1` [5-(3-chloro-4-fluorobenzenesulfon-amidomethyl)-N-(thiophen-3-ylmethyl)pyridine-2-carboxamide], the IC50 under setting [1] was found to be 10 µM and the IC50 (read-out: Binned Activity) was over 10 µM. In the case of `Cc1ncc(C(C)NC(=O)c2cnc(CNS(=O)(=O)c3ccc(F)c(Cl)c3)cn2)s1` (stereo not drawn) [5-(3-chloro-4-fluorobenzenesulfon-amidomethyl)-N-[1-(2-methyl-1,3-thiazol-5-yl)ethyl]pyrazine-2-carboxamide], under “read-out: Binned Activity”, the IC50 lay in the range of 0.1 to 1 µM. Regarding `CC(NC(=O)c1ccc(CNS(=O)(=O)c2ccc(F)c(Cl)c2)cn1)c1ccco1` (stereo not drawn) [5-(3-chloro-4-fluorobenzenesulfon-amidomethyl)-N-[1-(furan-2-yl)ethyl]pyridine-2-carboxamide], where the note is “read-out: Binned Activity”, the IC50 was 1 to 10 µM. The same measure, in the same setting: to `CC(NC(=O)c1ccc(CNS(=O)(=O)c2ccc(F)c(Cl)c2)cn1)c1cccs1` (stereo not drawn) [5-(3-chloro-4-fluorobenzenesulfon-amidomethyl)-N-[1-(thiophen-2-yl)ethyl]pyridine-2-carboxamide] belongs 1 to 10 µM. As for `COc1ccc(CCNC(=O)c2ccc(CNS(=O)(=O)c3ccc(F)c(Cl)c3)cn2)cc1` [5-(3-chloro-4-fluorobenzenesulfon-amidomethyl)-N-[2-(4-methoxyphenyl)ethyl] pyridine-2-carboxamide], the IC50 was 10 µM under setting [1] and over 10 µM (read-out: Binned Activity). For `CN(C)CCNC(=O)c1ccc(CNS(=O)(=O)c2ccc(F)c(Cl)c2)cn1` [5-(3-chloro-4-fluorobenzenesulfon-amidomethyl)-N-[2-(dimethylamino)ethyl] pyridine-2-carboxamide] the same measures were 10 µM and over 10 µM. For the molecule `CN(C)CCCNC(=O)c1ccc(CNS(=O)(=O)c2ccc(F)c(Cl)c2)cn1` [5-(3-chloro-4-fluorobenzenesulfon-amidomethyl)-N-[3-(dimethylamino)propyl] pyridine-2-carboxamide], the IC50 runs as follows: under setting [1], 10 µM; (read-out: Binned Activity) over 10 µM. For `Cc1cc(CNC(=O)c2cnc(CNS(=O)(=O)c3ccc(F)c(Cl)c3)cn2)n(C)n1` [5-(3-chloro-4-fluorobenzenesulfon-amidomethyl)-N-[(1,3-dimethyl-1H-pyrazol-5-yl)methyl]pyrazine-2-carboxamide] the same measures were 10 µM and over 10 µM. The matching figures for `Cc1cc(CNC(=O)c2ccc(CNS(=O)(=O)c3ccc(F)c(Cl)c3)cn2)n(C)n1` [5-(3-chloro-4-fluorobenzenesulfon-amidomethyl)-N-[(1,3-dimethyl-1H-pyrazol-5-yl)methyl]pyridine-2-carboxamide]: 10 µM and over 10 µM.
